Laboratory results reported in the SangsterLogP compilation.

Row | SMILES | logP
1 | CCCCCCCCC(C)(C)c1ccc([C@H]2CCC[C@@H](O)C2)c(O)c1 | 8.16
2 | CCCCCCCCCCC(C)(C)c1ccc(C2CCCC(O)C2)c(O)c1 (centres undefined) | 8.42
3 | CCCCCCC(C)(C)c1cc(O)c2c(c1)OC(C)(C)C1CC=C(C)CC21 (centres undefined) | 9.96
4 | CC1=CCC2C(C1)c1c(O)cc(NS(C)(=O)=O)cc1OC2(C)C (centres undefined) | 3.12
5 | CCCCCCC(C)(C)c1ccc(C2CC(O)CCC2C)c(O)c1 (centres undefined) | 7.49
6 | CCCCCCCC(C)(C)c1ccc([C@H]2CCC[C@@H](O)C2)c(O)c1 | 7.18
7 | CCCCCC(C)(C)c1ccc([C@H]2CCC[C@@H](O)C2)c(O)c1 | 5.97
8 | CCCCCCC(C)(C)c1cc(O)c2c(c1)OC(C)(C)C1CC=C(CO)CC21 (centres undefined) | 7.44
9 | CCCCCc1cc(O)c2c(c1)OC(C)(C)[C@@H]1CC=C(C(=O)O)C[C@@H]21 | 3.51
10 | CC(=O)Oc1cc(O[C@H](C)CCCc2ccccc2)cc2c1[C@@H]1C[C@H](O)CC[C@H]1[C@H](C)N2 | 5.7
11 | CCCCCCC(C)(C)c1cc(O)c2c(c1)OC(C)(C)C1CCC(CO)=CC21 (centres undefined) | 7.83
12 | CCCCCC(C)C(C)c1cc(O)c2c(c1)OC(C)(C)C1=C2CC(C)CC1 (centres undefined) | 8.3
13 | CCCCCCC(C)(C)c1ccc(C2CC(O)CCC2CCCO)c(O)c1 (centres undefined) | 6.13
14 | CCCC(C)(C)c1ccc(C2CCCC(O)C2)c(O)c1 (centres undefined) | 4.82
15 | CCCCCCC(C)(C)c1cc(O)c2c(c1)OC(C)(C)C1CCC(C=O)=CC21 (centres undefined) | 8.03
16 | CCCCCc1cc(O)c2c(c1)OC(C)(C)[C@@H]1CCC(CO)=C[C@@H]21 | 5.33
17 | C=C1C[C@H]2c3c(O)cc(CCCCC)cc3OC(C)(C)[C@@H]2C[C@H]1O | 4.24

Row | SMILES | logP
18 | C=C1CC[C@@H]2[C@@H](C1)c1c(OCc3ccc(-c4ccccc4)cc3)cc(CCCCC)cc1OC2(C)C | 11.3
19 | C=C(C)[C@@H]1CCC(C)=C[C@H]1c1c(O)cc(CCCCC)cc1O | 5.79
20 | CCCCCc1cc(OCc2ccc(-c3ccccc3)cc2)c2c(c1)OC(C)(C)C1CC=C(C)CC21 (centres undefined) | 10.9
21 | CCCCCc1cc(OCCCCCN2CC(=O)c3ccccc3C2=O)c2c(c1)OC(C)(C)C1CC=C(C)CC21 (centres undefined) | 9.07
22 | C=C1CCC2C(C1)c1c(OC)cc(CCCCC)cc1OC2(C)C (centres undefined) | 7.62
23 | CCCCC(C)(C)c1ccc(C2CCCC(O)C2)c(O)c1 (centres undefined) | 5.43
24 | CCCCCc1cc(O)c2c(c1)OC(C)(C)c1ccc(C)cc1-2 | 6.23
25 | CCCCCc1cc(O)c2c(c1)OC(C)(C)C1CC=C(C)CC21 (centres undefined) | 7.41
26 | CC(=O)Oc1cc(OC(C)CCCc2ccccc2)cc2c1C1CC(O)CCC1C(C)N2C (centres undefined) | 5.72
27 | CCCCCCC(C)(C)c1ccc(C2CC(O)CCC2CCCCO)c(O)c1 (centres undefined) | 6.68
28 | CCCCCCC(C)(C)c1ccc(C2CCCC(O)C2)c(O)c1 (centres undefined) | 6.68
29 | CCCCCc1cc(OCCCCN)c2c(c1)OC(C)(C)C1CC=C(C)CC21 (centres undefined) | 8.38
30 | CCCCCc1cc(OC)c2c(c1)OC(C)(C)[C@@H]1CC=C(C)C[C@@H]21 | 8.06
31 | CCC(C)(C)c1ccc(C2CCCC(O)C2)c(O)c1 (centres undefined) | 4.32
32 | C=C1CCC2C(C1)c1c(OC)cc(CCC)cc1OC2(C)C (centres undefined) | 6.26
33 | CCCCCCC(C)(C)c1ccc([C@@H]2C[C@H](O)C[C@@H]3CC[C@H](CO)C[C@H]32)c(O)c1 | 6.13
34 | CC(C)(C)c1ccc(C2CCCC(O)C2)c(O)c1 (centres undefined) | 4.05
